GI50 and TGI data for seven molecules are collected here from PubChem BioAssay (NCI).

What all share (experiment): DTP human tumour cell line panel, 48 h
The subject of assay [1] is A498 renal.
For assay [2], the system named is ACHN renal.
Assay [3] concerns M14 melanoma.
In assay [4] the test system is MDA-MB-231 breast.
Assay [5] relates to MDA-MB-435.
Assay [6] has as its system NCI-H460 lung.
Assay [7] concerns SF-268 CNS.
Assay [8] concerns SN12C renal.
Assay [9] concerns SNB-19 CNS.
In assay [10] the test system is HCC-2998 colon.

“And” between values parts separate entries of the source, which are not always exact repeats. Identical values can stand only once.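 Values below derive from 48-hour exposures of cells grown in 96-well plates, with endpoints linearly interpolated between the two concentrations bracketing the appropriate inhibition level. GI50 is the concentration that inhibits growth by half. At the TGI there is no net growth.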

By GI50 is commonly meant the concentration that inhibits growth by half. One may read the TGI as the concentration giving total growth inhibition. Lower therefore signals more potent growth arrest. Take `COc1ccc(C2c3cc4c(c(OC)c3CC3OCC(=O)C32)OCO4)cc1OC` (stereo not given): the GI50 in [1], in [3], in assay [4], in [6], in assay [7] and in [9] was under 0.01 µM throughout. The TGI is over 100 µM in [1]; 71.7 µM in assay [2]; over 100 µM in assay [3]; 0.123 µM in assay [4]; over 100 µM in [5]; 14.3 µM in assay [6]. In addition, the TGI in [7], in assay [8] and in assay [9] was over 100 µM throughout.

`CC(=O)NC1CCCN(O)C(=O)/C=C(/C)CCOC(=O)C(NC(C)=O)CCCN(O)C(=O)/C=C(/C)CCOC(=O)C(NC(C)=O)CCCN(O)C(=O)/C=C(/C)CCOC1=O.[Fe]` (stereo not given): the GI50 in [1], in [2], in assay [10], in assay [3], in assay [4] and in assay [5] was over 100 µM throughout. Moreover, the GI50 in [6], in assay [7], in assay [8] and in assay [9] was over 100 µM throughout. Besides, the total growth inhibition concentration (TGI) in [1], in [2], in assay [10], in assay [3], in assay [4] and in assay [5] was over 100 µM in each case. For the same molecule, the TGI in [6], in assay [7], in assay [8] and in assay [9] was over 100 µM each time.

In the case of `C/C(=C\CCc1ccsc1)CC/C=C(\C)CCCN1CCN(CCO)CC1`, the GI50 is 2.45 µM in assay [1]; 4.67 µM in assay [2]; 1.97 µM in assay [10]; 2.05 µM in assay [3]; 1.6 µM in assay [4]; 2.84 µM in assay [5]. Moreover, the GI50 was 1.96 µM in [6], 5.44 µM in assay [7], 4.13 µM in assay [8] and 4.4 µM in [9]. Moreover, the total growth inhibition concentration (TGI) in assay [1] was 7.51 µM; in assay [2], 17.4 µM; in assay [10] it was 3.63 µM; in [3] it was 4.2 µM; in assay [4], 4.18 µM; in [5] it was 8.66 µM. The TGI in [6] worked out at 3.79 µM; in [7], 19.8 µM; in assay [8], 19.2 µM; in assay [9], 21 µM.

For the molecule `Cc1ccc(C2NC(=S)N3C(c4ccc(C)cc4)NC(=S)N23)cc1` (stereo not given), the GI50 in assay [1] was 5.57 µM; in assay [2], 10.1 µM; in assay [10], 4.51 µM; in [3] it was 3.01 µM; in assay [4], 9.16 µM; in assay [5] it was 0.666 µM. The GI50 in [6] was 3.82 µM; in assay [7] it was 7.78 µM; in [8], 5.88 µM; in [9], 5.06 µM. Moreover, the TGI in assay [1] came to 18 µM; in [2] it was 21.7 µM; in assay [10] it was 17.4 µM; in [3], 11.2 µM; in assay [4], 24 µM; in assay [5] it was 4.14 µM. The TGI in [6] turned out to be 13.1 µM; in [7], 22.1 µM; in assay [8], 19.4 µM; in assay [9], 17.7 µM.

Regarding `Cc1ccc(-n2nnc3c(sc4ccccc43)c2=O)cc1`, the GI50 in assay [1] is 30.9 µM; in [2] it was 4.17 µM; in assay [10] it was 68.7 µM; in assay [3], over 100 µM; in assay [4], 4.04 µM; in assay [5] it was 14.6 µM. The GI50 in [6] was 4.19 µM; in assay [7] it was 4.62 µM; in assay [8], over 100 µM; in [9] it was 6.22 µM. Besides, the TGI in [1], in [2], in assay [10], in assay [3], in assay [4] and in [5] was over 100 µM in each case. The TGI in assay [6] was over 100 µM; in assay [7], 71 µM; in assay [8] it was over 100 µM; in [9] it was over 100 µM.

With `Cc1cc(C(=O)N2CCN(C)CC2)c2c(=O)n(-c3ccccc3)c(=O)n(CC(O)CN3CCN(c4ncccn4)CC3)c2n1` (stereo not given), the GI50 in assay [1], in assay [2], in [10], in assay [3], in [4] and in assay [5] was over 100 µM in each case. Also, the GI50 in assay [6], in assay [7], in assay [8] and in [9] was over 100 µM throughout. Also, the TGI in assay [1], in [2], in [10], in [3], in assay [4] and in assay [5] was over 100 µM each time. The TGI in assay [6], in [7], in [8] and in assay [9] was over 100 µM in each case.

`O=C(NC1CCNCC1)c1[nH]ncc1NC(=O)c1c(Cl)cccc1Cl`: the GI50 is 0.552 µM and 0.698 µM in [1]; 2.95 µM and 3.03 µM in [2]; 0.396 µM and 0.328 µM in [10]; 1.25 µM and 0.792 µM in assay [3]; 0.312 µM and 0.276 µM in assay [4]; 0.37 µM and 0.335 µM in assay [5]. Besides, the GI50 is 0.338 µM and 0.381 µM in assay [6]; 0.343 µM and 0.352 µM in assay [7]; 1.24 µM and 0.387 µM in [8]; 0.361 µM and 0.336 µM in [9]. Besides, the total growth inhibition concentration (TGI) was 1.77 µM and 1.78 µM in assay [1]; over 100 µM in assay [2]; 12 µM and > 6.08 µM in [10]; 7.06 µM and 6.17 µM in assay [3]; 2.07 µM and > 3.95 µM in assay [4]; 1.72 µM and 1.58 µM in [5]. The TGI in assay [6] was over 45.6 µM; in assay [7] it was 3.82 µM and > 7.39 µM; in [8], over 50.3 µM; in assay [9], over 60 µM.
